Key:
[1] = Thiobarbituric acid reactive substances (TBARS/TBA) assay of oxidative rancidity; settings: for TBA value: mean for entire 14 day study period, 80% oxygen MAP, 2° C
Excerpt: (§1) Thiobarbituric acid assay (TBA) values and color of ground beef in 80% oxygen modified atmosphere packaging were examined. The additive compositions used for each treatment are identified in Table 3.
(§2) Co., of Troy Ohio) with a 0.60 cm plate and finely ground using a 0.32 cm plate. The MM, vitamin E and STP were manually mixed with the meat. Meat portions of about 130 grams each were placed in vacuum pouches. […] The meat samples were packaged in PVC-wrapped containers in 80% oxygen MAP (gas cylinder containing 80% oxygen and 20% carbon dioxide available from Praxair Distribution of Salt Lake City, Utah) to simulate retail packaging conditions and held for 14 days at 2° C., which is essentially the same as conventional retail packaging for ground beef. Thiobarbituric acid assay (TBA) and color readings were taken after 1, 4, 7 and 14 days.
[…]. Oxidation of fat-containing foods leads to the formation of malondialdehyde or derivates of this compound. […]. Duplicate samples (0.5 g) were mixed with 2.5 ml of solution containing 0.375% TBA (Sigma Chem. Co. of St. Louis, Mo.), 15% trichloroacetic acid (TCA) (Mallinckrodt Baker, Inc. of Paris, Ky.) and 0.25 N hydrochloric acid (HCl). The samples were heated for 10 minutes in a boiling water bath (100° C.) to develop a pink color, cooled in tap water and centrifuged (Sorvall Instruments, Model RC 5C, DuPont, Wilmington, Del.) at 6000 rpm for 10 minutes. The absorbance of the supernatant was measured spectrophotometrically (Spectronic 21D, Milton Roy, Rochester, N.Y.) at 532 nm against a blank that contained all of the reagents minus the meat. The malonaldehyde (MDA) concentration was calculated using an extinction coefficient of 1.56×10^5 M-cm^−1. The MDA concentration was converted to TBA number (mg MDA/kg sample) according to Equation (I): [formula] or to TBA number (parts per million) according to Equation (II): TBA number (ppm)=Sample A532×2.77 (II)
Samples were taken from the exterior surface and the interior portions of the meat and analyzed for rancidity using TBA analysis.

[2] = Hunter color redness (a*) measurement
Excerpt: as §1, §2
The Hunter measurement standard uses the following scales: L=lightness, a=green and red and b=blue and yellow. The L*, a* and b* values were measured using a Hunter Lab Miniscan portable colorimeter (Reston, Va.), standardized using a white and black standard tile. The hue angle was calculated using the formula: hue angle=tan^−1(b*/a*).
Larger hue angles are associated with less red color, where hue angle=0 is red and hue angle=90 is yellow. The raw samples were scored for color, where 1=purple, 2=reddish purple, 3=bright red, 4=tan and 5=brown.

Row | Compound | TBA values ([1]; 0.25% STP and 0.5% STP, 7 and 14 days following packaging, FIG. 1b) | TBA values compared with control ([1]; 0.25% and 0.5% STP, 14 days following packaging) | TBA values compared with 0.25% STP treatment group ([1]; 0.5% STP, 14 days) | TBA value ([1]; STP 0.25% by weight of meat) | TBA value ([1]; STP 0.5% by weight of meat) | TBA values ([1]; higher level of STP (0.5%), after 14 days of storage) | TBA values (effectiveness compared with 0.5% STP) ([1]; lower level of STP (0.25%), after 14 days of storage) | TBA values compared with treatments with vitamin E ([1]; p<0.05) | red color compared with 0.25% STP and controls ([2]; 0.5% STP, after 14 days, FIG. 2b) | color stability of raw ground beef ([2]; MM more than STP) | TBA value ([1]; Vit E 50 ppm in ethanol) | TBA value ([1]; Vit E 50 ppm in mineral oil) | TBA value ([1]; Vit E 100 ppm in ethanol) | TBA value ([1]; Vit E 100 ppm in mineral oil) | TBA values compared with control ([1]; both vitamin E preparations (mineral oil, ethanol)) | antioxidant effects (TBA values) ([1]; vitamin E in mineral oil or in ethanol, FIG. 1c, 1d) | a* values ([2]; highest level of vitamin E in ethanol, by 14 days) | red color compared with controls ([2]; vitamin E in mineral oil, after 7 days) | red color compared with control ([2]; vitamin E in oil or in ethanol, FIG. 2c, 2d)
1 | O=P(O)(O)OP(=O)(O)OP(=O)(O)O [STP, sodium tripolyphosphate] | low TBA values | significantly lower | significantly lower | 0.65 b | 0.33 c | less than 1 | not as effective | lower | significantly more red color | dramatically increased | – | – | – | – | – | – | – | – | –
2 | vitamin E [Vit E] | – | – | – | – | – | – | – | – | – | – | 1.67 a | 1.71 a | 1.61 a | 1.74 a | not significantly different from the control | no antioxidant effects | lowest a* values | significantly less red in color than the controls | did not exhibit any more red color than control samples

From patent US20060257535A1, “Milk mineral compositions for use with raw meat products” (Glanbia Nutritionals (Ireland) Limited, priority 2005, published 2006)
